# Source: patent US10745701B2, “Methods of identifying and treating poor-prognosis cancers” (The Trustees of Princeton University, priority 2007, dated 2020)
# Experiments:
# LM2 cells [1] = experiment: Chemoresistance clonogenic assay; format: cell-based, human; conditions: for chemoresistance on ALDH3A1 overexpression in MTDH knockdown cells: constitutive ALDH3A1 overexpression in MTDH knockdown LM2 cells; for sensitivity of LM2 cells on ALDH3A1 knockdown: inducible ALDH3A1 shRNA induced by doxycycline
# Experimental: The infected cells were selected with 0.5 μg/ml puromycin or/and 0.4 mg/ml hygromycin. Double knockdown of MET and ALDH3A1 was achieved by simultaneous infection of MET and ALDH3A1 targeting viruses with different drug selection markers. MTDH, LAPTM4b, PTDSS1, SDC2, TSPYL5, and UQCRB overexpression was achieved using the retroviral expression vector pBabe-hygro. Viruses were generated and used to infect target cells as above and the infected cells were selected with 0.4 mg/ml hygromycin. For combinational overexpression of genes at 8q22, the viruses generated from the expression vector pBabe-puro containing each of the four genes were concentrated by ultracentrifugation and pooled for infection. Northern blots, qRT-PCR, and/or Western blots were performed to validate the knockdown or overexpression of target genes.
# To generate an inducible knockdown of ALDH3A1, a retroviral vector expressing the Tet repressor (TetR) was constructed by cloning the TetR coding sequence from the pcDNA6/TR plasmid (Invitrogen) to pQCXIH (Clontech). LM2 cell line with stable expression of TetR was generated by transduction with retroviruses produced from pQCXIH-TetR. The cell line was then infected with retroviruses generated from the pRSMX vector^77 containing the ALDH3A1-targeting shRNA sequence. The expression of a shRNA against ALDH3A1 is under the control of the histone H1 promoter and two adjacent tetracycline operators (TetOs). The bacterial Tet repressor (TetR) is constitutively expressed from the integrated pQCXIH-TetR in this cell line and suppresses the expression of shRNA by binding to TetOs. In the presence of […] doxycycline in the media, TetR is released from the TetOs and allow the transcription of ALDH3A1 shRNA and thus the repression of ALDH3A1 expression. The pBabe-hygro vector was used to overexpress ALDH3A1.
# Cancer cells with genetic modification of MTDH and/or ALDH3A1 and the vector control were seeded into a 48-well plate (10^4 cells/well). After 24 h, the cells were treated with apoptosis-inducing chemicals for the indicated time (20, 50 or 100 nM paclitaxel, EMD Biosciences, 24 h; 50, 100 or 200 μM doxorubicin, EMD Biosciences, 24 h; 40 μM cisplatin, EMD Biosciences, 2 h; 200 or 500 μM H2O2, Fisher Scientific, 2 h) or 10 mJ/cm^2 UV irradiation. After culturing in drug-free DMEM medium for another 48 h, the surviving cells were quantified by clonogenic assay with the standard procedure for long-term recovery. Briefly, an aliquot of the harvested cell population was seeded onto a 10 cm dish. Crystal violet staining was used to count the colonies after 10-day culture in DMEM medium. The colony numbers from untreated cells of the same line were used to normalize the experimental data. In the HMVEC-L co-culture assays, HMVEC-L cells were grown to confluence in the 48-well plates with supplemented EGM-2 medium (Lonza) before seeding of cancer cells. Because HMVEC-L cells could not form colonies in the DMEM medium (data not shown), the rest of the assay was performed following the standard procedure.
# LM2 cells [2] = experiment: Drug uptake and retention analysis of radiolabeled paclitaxel and doxorubicin; conditions: for effect of MTDH on drug uptake or retention: cancer cells with modified MTDH expression (LM2 knockdown, SCP28 overexpression); for kinetics of uptake and retention: parent LM2 cells, pilot study, 50 nM [H3]-paclitaxel or 100 nM [C14]-doxorubicin
# Experimental: Cells were seeded into 12 well plates at densities of 3×10^5 per well in 1 ml of culture medium. One day after seeding, the medium was replaced with 1 ml of medium containing 50 nM [H^3]-Paclitaxel (Moravek, 2 Ci/mmol) or 100 nM [C^14]-Doxorubicin (GE HealthCare, 56 mCi/mmol). […] For the uptake study, cells were harvested immediately after incubation with drug-containing medium. For the retention study, cells were incubated with drug-containing medium for 4 h, followed by incubation in 2 ml drug-free medium and then harvested. After washing with cold PBS, the pelleted cells were lysed with 200 ul of 0.1N NaOH. An aliquot (5 ul) was used to determine the protein concentration by Bradford assay (Sigma-Aldrich) with BSA as standards. The remaining cell lysates were transferred to scintillation count vials and mixed with 4 ml ECoScint scintillation fluid (National Diagnostics) and the radioactivity was measured by liquid scintillation counting. A standard curve was established and used to calculate the amount of cell-associated drug.
# LM2 cells [3] = experiment: In vivo chemoresistance assay, subcutaneous LM2 xenograft tumors; parameters: species or system nude mice
# Experimental: MTDH-knockdown or control LM2 cells (1×10^6 cells/0.1 ml in a 50:50 solution of PBS and Matrigel) were injected subcutaneously into each flank of nude mice. The mice were treated with chemotherapeutic drugs (20 mg/kg paclitaxel or 5 mg/kg doxorubicin) or the corresponding drug vehicles (Cremophor for paclitaxel and saline for doxorubicin) twice a week by intravenous delivery a week after the tumor xenografting. Six mice (12 tumors) were used for each group. Tumor growth was monitored twice a week by size measurement. Both maximum (L) and minimum (W) diameters of the tumor were measured using a slide caliper, and the tumor volume was calculated as […]LW^2/6. Tumor growth was normalized to that before drug treatment.
SMILES,"chemoresistance on MET knockdown (LM2 cells [1]; MET knockdown in LM2 cells, weaker than MTDH knockdown)",chemoresistance on ALDH3A1 overexpression in MTDH knockdown cells (LM2 cells [1]),sensitivity of LM2 cells on ALDH3A1 knockdown (LM2 cells [1]),effect of MTDH on drug uptake or retention (LM2 cells [2]),kinetics of uptake and retention (LM2 cells [2]),"tumor size relative to pre-treatment size (LM2 cells [3]; MTDH knockdown LM2 cells, 20 mg/kg paclitaxel intravenous twice a week, 18 days after initiation of treatment)","tumor response in MTDH knockdown tumors (LM2 cells [3]; MTDH knockdown LM2 cells, paclitaxel 20 mg/kg or doxorubicin 5 mg/kg twice a week)","tumor volume relative to volume before treatment (LM2 cells [3]; control LM2 cells, 20 mg/kg paclitaxel intravenous twice a week, 18 days after treatment)","effect on tumor growth (LM2 cells [3]; control LM2 cells, versus drug vehicle)"
COc1cccc2c1C(=O)c1c(O)c3c(c(O)c1C2=O)C[C@@](O)(C(=O)CO)C[C@@H]3O[C@H]1C[C@H](N)[C@H](O)[C@H](C)O1 [doxorubicin],significant reduction of chemoresistance,partially restore,more sensitive,does not decrease drug uptake or retention,biphasic kinetics,–,–,–,–
CC(=O)O[C@H]1C(=O)[C@@]2(C)[C@H]([C@H](OC(=O)c3ccccc3)[C@]3(O)C[C@H](OC(=O)[C@H](O)[C@@H](NC(=O)c4ccccc4)c4ccccc4)C(C)=C1C3(C)C)[C@]1(OC(C)=O)CO[C@@H]1C[C@@H]2O [paclitaxel],–,partially restore,more sensitive,does not decrease drug uptake or retention,biphasic kinetics,about 30%,tumor regression,140%,significantly hampered tumor growth
